Results reported in PubChem BioAssay (NCI).
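Method: 48-hour compound exposure of cells in 96-well plates, five concentrations, linear interpolation of endpoints. At the TGI there is no net growth.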

Key:
Assay in all cases: growth of human tumour cells (NCI), 48 h
786-0 renal = tested on: 786-0 renal
A498 renal = tested on: A498 renal
A549 NSCLC = tested on: A549 NSCLC
ACHN renal = tested on: ACHN renal
BT-549 breast = tested on: BT-549 breast
CAKI-1 renal = tested on: CAKI-1 renal
CCRF-CEM leukemia = tested on: CCRF-CEM leukemia
DU-145 prostate = tested on: DU-145 prostate
EKVX NSCLC = tested on: EKVX NSCLC
HCT-116 colon = tested on: HCT-116 colon
HCT-15 colon = tested on: HCT-15 colon
HL-60(TB) leukemia = tested on: HL-60(TB) leukemia
HOP-62 NSCLC = tested on: HOP-62 NSCLC
HOP-92 NSCLC = tested on: HOP-92 NSCLC
HT29 colon = tested on: HT29 colon
IGROV1 ovarian = tested on: IGROV1 ovarian
K-562 leukemia = tested on: K-562 leukemia
KM12 colon = tested on: KM12 colon
LOX IMVI melanoma = tested on: LOX IMVI melanoma
M14 melanoma = tested on: M14 melanoma
MALME-3M melanoma = tested on: MALME-3M melanoma
MDA-MB-231 breast = tested on: MDA-MB-231 breast
MDA-MB-435 = tested on: MDA-MB-435
MDA-N = tested on: MDA-N
MOLT-4 leukemia = tested on: MOLT-4 leukemia
NCI-H226 lung = tested on: NCI-H226 lung
NCI-H23 lung = tested on: NCI-H23 lung
NCI-H460 lung = tested on: NCI-H460 lung
NCI-H522 lung = tested on: NCI-H522 lung
NCI/ADR-RES ovarian = tested on: NCI/ADR-RES ovarian
OVCAR-3 ovarian = tested on: OVCAR-3 ovarian
OVCAR-4 ovarian = tested on: OVCAR-4 ovarian
OVCAR-5 ovarian = tested on: OVCAR-5 ovarian
OVCAR-8 ovarian = tested on: OVCAR-8 ovarian
PC-3 prostate = tested on: PC-3 prostate
RXF 393 renal = tested on: RXF 393 renal
SF-268 CNS = tested on: SF-268 CNS
SF-295 CNS = tested on: SF-295 CNS
SK-MEL-2 melanoma = tested on: SK-MEL-2 melanoma
SK-MEL-28 melanoma = tested on: SK-MEL-28 melanoma
SK-MEL-5 melanoma = tested on: SK-MEL-5 melanoma
SN12C renal = tested on: SN12C renal
SNB-19 CNS = tested on: SNB-19 CNS
SR leukemia = tested on: SR leukemia
SW-620 colon = tested on: SW-620 colon
T-47D breast = tested on: T-47D breast
TK-10 renal = tested on: TK-10 renal
U251 CNS = tested on: U251 CNS
UACC-257 melanoma = tested on: UACC-257 melanoma
UACC-62 melanoma = tested on: UACC-62 melanoma
UO-31 renal = tested on: UO-31 renal
COLO 205 colon = tested on: COLO 205 colon
MCF7 breast = tested on: MCF7 breast
RPMI-8226 leukemia = tested on: RPMI-8226 leukemia
SF-539 CNS = tested on: SF-539 CNS
SK-OV-3 ovarian = tested on: SK-OV-3 ovarian

Measured: TGI

N=c1nc(N)nc(N)n1-c1ccc(S(N)(=O)=O)cc1
not listed: COLO 205 colon | MCF7 breast | RPMI-8226 leukemia | SF-539 CNS | SK-OV-3 ovarian
> 100 µM: all other assays above

S=C(S)NCCCn1ccnc1
not listed: CCRF-CEM leukemia | RXF 393 renal
> 100 µM: all other assays above
